Experimental data reported in patent publication US12624068B2, “Exon skipping by peptide nucleic acid derivatives” (OliPass Corporation, priority 2016, dated 2026).
{Fethoc} = N-terminal Fethoc capping group (publication's abbreviation); [C(1O2)] = modified PNA monomer acting as cytosine, C(pOq) type, 1O2; [A(5)] = modified PNA monomer acting as adenine, A(p) with p=5; [G(5)] = modified PNA monomer acting as guanine, G(p) type, p=5; [G(6)] = modified PNA monomer acting as guanine, G(p) with p=6; {NH2} = C-terminal unsubstituted amide (-NH2); [C(12)] = modified PNA cytosine monomer

What was measured:
human IDO1 pre-mRNA = assay: IDO1 nested PCR for exon skipping in SKOV3 cells; type: cell-based; settings: 48 hours
Method: “IDO-ASO 1” was evaluated for its ability to induce exon skipping in SKOV3 cells (Cat. Number HTB-77, ATCC) by IDO1 nested PCR as follows. [Cell Culture & ASO Treatment] SKOV3 (human ovary adenocarcinoma) cells were subcultured in 60 mm culture dish containing 5 mL McCoy's 5A modified medium supplemented with 10% FBS, 1% streptomycin/penicillin, 1% L-glutamine, and 1% sodium pyruvate under 5% CO2 at 37° C., and treated with “IDO-ASO 1” for 48 hours at 0 zM (negative control), 10 zM, 100 zM or 1 aM. [RNA Extraction & cDNA Synthesis by One-Step RT-PCR] Total RNA was extracted from the cells using “Universal RNA Extraction Kit” (Cat. Number 9767, Takara) according to the manufacturer's instructions. […] NO: 114); and IDO-exon 10_reverse: (5'→3') […] [Nested PCR Amplification] 1 μL of cDNA was further amplified in a 20 μL nested PCR reaction (Cat. No. K2612, Bioneer) against a set of exon-specific primers [IDO-exon 4_forward: (5'→3') […] NO: 116); and IDO-exon 9_reverse: (5'→3') […] [Identification of Exon Skipping Product] The PCR products were subjected to electrophoretic separation on a 2% agarose gel. The bands of target size were collected and analyzed by Sanger sequencing. […] [ASO Treatment] SKOV3 cells grown in 60 mm culture dish were treated with “IDO-ASO 5” at 0 (negative control), 1, 3, 10, 30 or 100 aM for 48 hours. [cDNA Synthesis by One-step PCR] […] NO: 119); and IDO-exon 8_reverse: (5'→3') […] [Nested PCR Amplification] 1 μL of cDNA was further amplified in a 20 μL nested PCR (Cat. No. K2612, Bioneer) reaction using a set of exon-specific primers [IDO-exon 1n_forward: (5'→3') […] NO: 121); and IDO-exon 8n_reverse: (5'→3') […] “IDO-ASO 6” was evaluated for its ability to induce exon skipping in SKOV3 cells by IDO1 nested PCR as described in “IDO1 Example 3” unless noted otherwise.

[1] = tested on: rats with diabetes-induced peripheral neuropathic pain (DPNP); assay: Reversal of allodynia (von Frey) in rats with diabetes-induced peripheral neuropathic pain; type: in vivo, rat; settings: 100 pmole/Kg subcutaneous in Days 11, 13, 15, 17 and 19
Method: “SCN-ASO 7”, “SCN-ASO 8”, “SCN-ASO 21”, “SCN-ASO 35”, “SCN-ASO 36” and “SCN-ASO 37” were evaluated for their ability to reverse the allodynia in rats with diabetes-induced peripheral neuropathic pain (DPNP). In this example, the six SCN9A ASOs targeting a total of five splice sites were evaluated for their ability to reverse the allodynia induced by diabetic neuropathy in rats.
[Induction of DPNP and Grouping] Diabetes was induced in rats by an intraperitoneal injection of streptozotocin at 60 mg/Kg in Day 0. In Day 10, rats with DPNP were randomly assigned to […] of negative control (vehicle only), “SCN-ASO 7” 100 pmole/Kg, “SCN-ASO 8” 100 pmole/Kg, “SCN-ASO 21” 100 pmole/Kg, “SCN-ASO 35” 100 pmole/Kg, “SCN-ASO 36” 100 pmole/Kg, and “SCN-ASO 37” 100 pmole/Kg. The animals were grouped based on the von Frey scores of individual animals in Day 10. (N=8-9 per group) Allodynia was scored using a set of microfilaments (Touch Test®) according to the “Up & Down” method. [J Neurosci. Methods vol 53(1), 55-63 (1994)]
[ASO Treatment and von Frey Scoring] ASO solutions for injection were prepared by serially diluting aqueous mother stock solutions of the SCN9A ASOs to 100 nM in PBS (phosphate buffered saline). Animals were subcutaneously administered with ASO at 1 mL/Kg in Days 11, 13, 15, 17 and 19. Von Frey scoring was carried out 2 hours post dose in Days 11, 13, 15, 17 and 19. Von Frey scoring was additionally performed in Days 21 and 23 in order to assess the duration of the therapeutic activity after the final dosing. Daily von Frey scores were evaluated for statistical significance by student's t-test against the negative control group (vehicle only, i.e., PBS).

B16F10 melanoma = assay: Antitumor activity against B16F10 melanoma in C57BL/6 mice; type: in vivo
Method: “PD-ASO 2” was evaluated for its antitumor activity in male C57BL/6 mice (4 weeks old) injected with B16F10 melanoma cells as provided below.
[Inoculation of B16F10 Melanoma Cells] B16F10 mouse melanoma cells (Cat. Number CRL-6475, ATCC) were maintained in 150 mm culture dish containing DMEM supplemented with 10% FBS, 1% streptomycin/penicillin, and 0.01 mg/ml bovine insulin. In Day 0, ca 1×10^5 B16F10 cells dissolved in 50 μL PBS were injected to each animal at the right rear flank.
[Grouping & ASO Treatment] In Day 3, the animals were randomly assigned by weight to 4 groups of 0 (negative control), 2, 10 and 50 pmole/Kg “PD-ASO 2”. (N=15 per group)
Injection solutions were prepared by serially diluting an aqueous mother stock solution of “PD-ASO 2” in PBS to 0 nM (PBS only), 0.4 nM, 2 nM and […] “PD-ASO 2” for the negative control, 2, 10 and 50 pmole/Kg “PD-ASO 2” group, respectively.
The animals were subcutaneously administered with an injection solution at 5 mL/Kg, 2× per week during Day 3 to Day 17.
[Anti-tumor Activity] The anti-tumor activity was assessed by changes in the tumor volume between each ASO treatment group and the negative control group.

[2] = 2 pmole/Kg subcutaneous, 2× per week Day 3 to Day 17

For “Fethoc-GG(6)C-AA(5)G-A(5)CC(1O2)-TGA(5)-T-NH2 (GGCAAGACCTGAT; splice-switching; all peptide nucleic acid (PNA), [G(6)] at 2, [A(5)] at 5, 7, 12, [C(1O2)] at 9, 5' {Fethoc}, 3' {NH2}; peptide nucleic acid backbone) [IDO-ASO 6]”, the “IDO1 exon skipping by nested PCR” value (human IDO1 pre-mRNA; 1 to 30 aM) was “clearly yielded a single mRNA splice variant lacking exons 2-5” and the “IDO1 exon skipping by nested PCR” value (human IDO1 pre-mRNA; 100 aM) was “the exon skipping band was not detected”.

With “Fethoc-CA(5)A-A(5)CC(1O2)-TTA(5)-CGG(6)-A-NH2 (CAAACCTTACGGA; splice-switching; all peptide nucleic acid (PNA), [A(5)] at 2, 4, 9, [C(1O2)] at 6, [G(6)] at 12, 5' {Fethoc}, 3' {NH2}; peptide nucleic acid backbone) [IDO-ASO 5]” the “IDO1 exon skipping by nested PCR” value (human IDO1 pre-mRNA; 30 and 100 aM) was “clearly yielded the mRNA splice variants lacking exons 2-4 and exons 2-6”.

In the case of “Fethoc-AA(5)G-A(5)C(12)T-CG(6)G-A(5)GC(1O2)-TA(5)-NH2 (AAGACTCGGAGCTA; all peptide nucleic acid (PNA), [A(5)] at 2, 4, 10, 14, [C(12)] at 5, [G(6)] at 8, [C(1O2)] at 12, 5' {Fethoc}, 3' {NH2}) [SCN-ASO 37]”, the “maximum therapeutic efficacy based on the von Frey scores in Day 19” value (“maximum therapeutic efficacy based” below) [1] is reported as 22%.

With “Fethoc-GA(5)T-A(5)TG-A(5)GT-G(6)CA(5)-C(1O2)TA(5)-A-NH2 (GATATGAGTGCACTAA; splice-switching; all peptide nucleic acid (PNA), [A(5)] at 2, 4, 7, 12, 15, [G(6)] at 10, [C(1O2)] at 13, 5' {Fethoc}, 3' {NH2}; peptide nucleic acid backbone) [SCN-ASO 35]” the “maximum therapeutic efficacy based” value [1] was 52%.

In the case of “Fethoc-A(5)TA(5)-CC(1O2)C-TG(6)A-A(5)TC-TG(6)T-NH2 (ATACCCTGAATCTGT; splice-switching; all peptide nucleic acid (PNA), [A(5)] at 1, 3, 10, [C(1O2)] at 5, [G(6)] at 8, 14, 5' {Fethoc}, 3' {NH2}; peptide nucleic acid backbone) [SCN-ASO 36]”, the “maximum therapeutic efficacy based” value [1] is reported as 0%.

With “Fethoc-CC(1O2)T-CA(5)C-CTG(5)-TTA(5)-C(1O2)CA(5)-C-NH2 (CCTCACCTGTTACCAC; splice-switching; all peptide nucleic acid (PNA), [C(1O2)] at 2, 13, [A(5)] at 5, 12, 15, [G(5)] at 9, 5' {Fethoc}, 3' {NH2}; peptide nucleic acid backbone) [PD-ASO 2]” the “average tumor weight in Day 19” value (B16F10 melanoma; 2 pmole/Kg) was about 0.35 g, the “inhibition of tumor growth by weight in Day 19” value (B16F10 melanoma; 2 pmole/Kg) was about 70% and the “inhibition of tumor growth (tumor volume) in Day 19” value (B16F10 melanoma; [2]) was about 55%. The “tumor volume in Day 19” value (B16F10 melanoma; [2]) was about 375 mm^3, the “antitumor activity (tumor volume)” value (B16F10 melanoma; 10 pmole/Kg, whole period) was “marginal without significance” and the “antitumor activity (tumor volume)” value (B16F10 melanoma; 50 pmole/Kg, Day 10 to Day 17) was “comparable to that of the 2 pmole/Kg group”. For the same substance, the “antitumor activity (tumor volume)” value (B16F10 melanoma; 50 pmole/Kg, Day 19) was “disappeared in Day 19”.

“Fethoc-TA(5)A-A(5)AG(6)-TG(6)T-A(5)CC(1O2)-TA(5)A-A(5)-NH2 (TAAAAGTGTACCTAAA; splice-switching; all peptide nucleic acid (PNA), [A(5)] at 2, 4, 10, 14, 16, [G(6)] at 6, 8, [C(1O2)] at 12, 5' {Fethoc}, 3' {NH2}; peptide nucleic acid backbone) [SCN-ASO 21]” was tested, and the “maximum therapeutic efficacy based” value [1] was 93%.
